This is an account of results in publication PMC7838546, “A Thermostable, Modified Cathelicidin-Derived Peptide With Enhanced Membrane-Active Activity Against Salmonella enterica serovar Typhimurium” (Frontiers in Microbiology, 2021).

Ends that are not written are not given here.

Data set [1] deals with human red blood cells (hRBCs). Particulars: highest concentration tested 250 μg/ml, ref Klubthawee et al., 2020; cited from earlier work. An excerpt:
Recently, a 12-mer α-helical, cationic AMP (‘P7’) was designed based on the cathelicidin family using a template-modified strategy, and subsequently modified by truncation and amino acid substitution ([Klubthawee et al., 2020]). […] Furthermore, P7 sho ...

Data set [2] concerns S. enterica serovar Typhimurium H1-001 (clinical isolate). Put plainly: MIC/MBC, broth microdilution and colony count. In kind it is cell-based, Salmonella enterica serovar Typhimurium. Particulars: H1-001, blood, resistant Amp, Ctx, C, Cp, NA, T, intermediate Amc, broth microdilution, 37°C, 24 h. As to the method:
(§1) Salmonella enterica serovar Typhimurium ATCC 13311, 24 drug-resistant foodborne and eleven drug-resistant human borne S. enterica serovar Typhimurium and 4,5,12:i:- isolates (Table 1) were used as test microorganisms. They were previously isolated for molecular characterization in 2014 and kindly provided by Dr. Soraya Chaturongakul (Mahidol University, Thailand) ([Huoy et al., 2014]). All bacteria were cultured in Tryptic Soy Broth (TSB) and incubated at 37°C for 18 h. Mueller Hinton Broth (MHB) was then used to wash and rinse the bacteria. The bacterial suspensions were then diluted to obtain concentrations of 10^7 CFU/ml for inoculations.
(§2) A modified version of the National Committee for Clinical Laboratory Standards (NCCLS) broth microdilution method ([Steinberg et al., 1997]) was used to determine the minimum inhibitory concentrations (MICs) of peptide and compared to that of nisin. Fifty microliters of two-fold serial dilutions of each peptide [0.98–250 μg/ml in 0.01% (v/v) acetic acid and 0.2% (w/v) bovine serum albumin (BSA, Sigma-Aldrich, MO, United States)], were incubated with 50 μl of bacterial suspensions (approximately 10^7 CFU/ml) at 37°C for 24 h in a shaking incubator. MICs were taken as the lowest concentration of peptide at which growth was inhibited as observed by visual inspection. Bacterial cultures without peptides and uncultured broth were used as positive and negative controls, respectively. Minimal bactericidal concentrations (MBCs) were determined using a colony count assay ([Clinical Laboratory Standards Institute [CLSI], 2015]). Fifty microliters of samples from each non-turbid well in the MIC determination experiment was plated on Mueller Hinton Agar (MHA) and colonies were observed after overnight incubation at 37°C. MBCs were designated as the least concentration showing no colony growth on the plate. All of experiments were performed in triplicate.
In general terms: Broth dilution looks for growth in wells or tubes with falling amounts of substance.

The test system of data set [3] is S. enterica serovar Typhimurium H1-006 (clinical isolate). The data set is described as follows: MIC/MBC, broth microdilution and colony count. In kind it is cell-based, Salmonella enterica serovar Typhimurium. The settings on record: H1-006, blood; resistant NA; intermediate S, Cp; broth microdilution, 37°C, 24 h. As to the method: as §1, §2
In data set [4] the test system is S. enterica serovar Typhimurium H1-015 (clinical isolate). Put plainly: MIC/MBC, broth microdilution and colony count. In kind it is cell-based, Salmonella enterica serovar Typhimurium. The settings on record: H1-015, boot swab, resistant Amp, intermediate Cp, broth microdilution, 37°C, 24 h. Here is the method: as §1, §2
The test system of data set [5] is S. enterica serovar Typhimurium H1-041 (clinical isolate). The data set is described as follows: MIC/MBC, broth microdilution and colony count. In kind it is cell-based, Salmonella enterica serovar Typhimurium. The settings on record: H1-041, stool, resistant Amp, Ctx, C, T, SxT, intermediate Amc, Cp, NA, broth microdilution, 37°C, 24 h. As to the method: as §1, §2

Take KIAKRIWKILRR-NH2 [P7]: the Hemolysis result in data set [1] is given as “less than 5%”.

What is called MIC is the smallest concentration in the dilution series that meets the test's criterion for growth inhibition. The low end stands for greater potency, the high end for weaker potency. In the case of “Nisin: authorized food preservative peptide, binds lipid II and forms membrane pores (ITSISLCTPGCKTGALMGCNMKTATCHCSIHVSK; cysteine pairing not given here; also: lantibiotic nisin-A; UniProt P13068 24-57, looked up)”, the MIC in data set [2], in data set [3], in data set [4] and in data set [5] was above 1000 µg/mL each time.
